{"source": "paper PMC3723855", "about": "“R31C GNRH1 Mutation and Congenital Hypogonadotropic Hypogonadism” (PLoS ONE, 2013)", "key": {"[1]": {"test": "Peptide stability in solution, LC-MS/MS", "protocol": "LC-MS/MS was performed with Quattro-LCZ triple quadrupole mass spectrometer equipped with the orthogonal electrospray source (Micromass, Manchester, UK) to analyze peptides stability in solution. Peptides solutions (water and cell culture medium) were incubated 24-h at room temperature for these stability studies.\nPeptides were measured in aqueous solution at pH 7 and starved overnight at 37°C."}, "human GnRH receptor": {"test_system": "human GnRH receptor", "test": "SRE-coupled luciferase assay in HEK293T cells co-transfected with human GnRH receptor", "format": "cell-based", "details": "for EC50: human GnRH receptor", "procedure": "Figure 3 SRE-coupled luciferase assay. (A) HEK293T cells were exposed to graded concentrations of wild type (WT) GnRH, R31C and equimolar concentrations of WT + R31C during five hours. Luciferase activity arbitrary units by luminometry (a.u.) have been shown as ratio on beta-galactosidase activity by optical density used as transfection efficiency internal control. This experience was conducted eight times. (B) Representation of individual values of EC-50 (calculated with Arcsin “P” root transformation) from n = 8 dose-response experiments.\nluc2P/SRE/Hygro plasmid (Promega, Madison, WI) was used to test luciferase production in response to MAP kinase activation as a reporter gene system. HEK293T cells (1.2×10^4 cells/well) were seeded 72 h before testing in high-glucose Dulbecco's minimal essential medium (DMEM, Invitrogen, Cergy Pontoise, France) containing 2 mM glutamine, 100 IU/mL penicillin, […] streptomycin, and 10% heat-inactivated fetal calf serum at 37°C in 96-well plates. Twenty-four hours before testing, cells were co-transfected in serum free OptiMEM, using Lipofectamine 2000 (Invitrogen, Cergy Pontoise, France) with the plasmids for human GnRH receptor, luc2P/SRE/Hygro and pMIR-REPORT™ beta-galactosidase vector (Applied Biosystems, Foster City, CA). […] After 5 h-incubation cells were harvested and assayed for luciferase activities as previously described, using a luminometer (Victor, Perkin Elmer, Waltham, MA). To standardize for transfection efficiency, the relative light units were normalized by the galactosidase activity at optical density. EC-50 and Emax values were calculated using Graphpad Prism (GraphPad Software Inc)."}, "lhb (LbetaT2 cells)": {"test_system": "lhb (LbetaT2 cells)", "test": "lhb transcription (RT-qPCR) in LbetaT2 cells", "format": "cell-based, mouse", "details": "for lhb transcription versus WT GnRH: 10 nM R31C; for lhb transcript levels: 10 nM, n = 7 in duplicates, p<0.01 for WT, not significant for R31C", "procedure": "Figure 7 Effects of treatments on lhb transcription and LH secretion. […] After five hours treatment cells were lysed for RNA extraction (Trizol®). Mouse lhb levels were analyzed by quantitative real time RT-qPCR. Values are expressed as individual ratios on 18S and represented as fold induction on vehicle as means ± SEM, **p<0.01. This experience was conducted n = 7 times in duplicates. (B) LH concentrations from LbetaT2 cells culture media. Cells were starved overnight in serum-free DMEM and incubated with 10 nM WT, 10 nM R31C, 10 nM WT +10 nM R31C, or vehicle for 5 hours. LH levels were measured by a combined rat/mouse RIA. Values are expressed as individual values and as means ± SEM, *p<0.05, ***p<0.001. The experiment was conducted four times and each sample was assayed in duplicates.\nLbetaT2 cells were grown at 10^6/well in 6-well plates and starved in serum-free DMEM 18 h before tests. […]\nLhb (murine LH beta subunit) transcript was quantified by real-time RT-PCR, using an ABI Step One Sequence Detector (Applied Biosystem, Foster City, CA) as previously described."}, "ERK1/2 (LbetaT2 cells)": {"test_system": "ERK1/2 (LbetaT2 cells)", "test": "ERK1/2 phosphorylation Western blot in LbetaT2 cells", "format": "cell-based, murine", "procedure": "Figure 4 ERK1/2 phosphorylation by Western blot. (A) LbetaT2 cells were starved overnight in serum-free DMEM and then treated by 10 nM WT, 10 nM R31C, 10 nM WT +10 nM R31C peptides or vehicle for 0, 5, 10 and 30 minutes. Representative of four experiments. […] Lysates were analyzed by Western Blotting using phospho-ERK1/2 antibodies (Cell Signaling®, open arrow) and mouse monoclonal anti alpha-tubulin (Sigma Aldrich®, St. Louis, MO, close arrow). Similar results on ERK intensity and kinetics were obtained using transiently transfected HEK293T cells.\nLbetaT2 cells were starved 18 h in serum-free DMEM before treatments, then exposed to 10 nM of WT, 10 nM of R31C, the combination of 10 nM of each peptide or vehicle. Cells were harvested at 0, 5, 10, 15 and 30 minutes after treatment. Western blotting analyses were performed as previously described."}, "LH (LbetaT2 cells)": {"test_system": "LH (LbetaT2 cells)", "test": "LH secretion from LbetaT2 cells", "format": "cell-based, murine", "details": "for LH secretion versus WT GnRH: 10 nM R31C; for LH secretion over baseline: 10 nM, four experiments in duplicates, p<0.001 for WT, p = 0.042 for R31C", "procedure": "Figure 7 Effects of treatments on lhb transcription and LH secretion. (A) LbetaT2 cells were starved overnight in serum-free DMEM and treated either by 10 nM WT, R31C, 10 nM WT +10 nM R31C peptides or vehicle. After five hours treatment cells were lysed for RNA extraction (Trizol®). Mouse lhb levels were analyzed by quantitative real time RT-qPCR. Values are expressed as individual ratios on 18S and represented as fold induction on vehicle as means ± SEM, **p<0.01. This experience was conducted n = 7 times in duplicates. (B) LH concentrations from LbetaT2 cells culture media. Cells were starved overnight in serum-free DMEM and incubated with 10 nM WT, 10 nM R31C, 10 nM WT +10 nM R31C, or vehicle for 5 hours. LH levels were measured by a combined rat/mouse RIA. Values are expressed as individual values and as means ± SEM, *p<0.05, ***p<0.001. The experiment was conducted four times and each sample was assayed in duplicates.\nLbetaT2 cells were starved overnight in serum-free DMEM. The test day cells were exposed to 10 nM WT, R31C, the combination of 10 nM of each peptide or vehicle during five hours. Cell culture supernatants were collected and rapidly stored at −80°C. In cell culture media, LH concentration was measured using a previously described […] method with reagents supplied by Dr. Parlow (National Hormone and Peptide Program, Harbor-UCLA Medical Center, Torrance, CA). The minimum detectable LH concentration was 0.2 ng/ml, and the interassay coefficient of variation was less than 10%."}, "GnRH-R": {"test_system": "GnRH-R", "test": "Binding after pre-incubation and washout (covalent binding test), transfected COS-7 cells", "design": "species or system human", "details": "for covalent binding to receptor / subsequent binding of radiolabeled GnRH analog after pre-incubation and washing: WT GnRH 10^−8 M or R31C GnRH 10^−5 M, 2 h, 4°C, washed, 1 h, two experiments in triplicate", "procedure": "Figure 2 Binding of WT and R31C GnRH to the GnRH receptor (GnRH-R). […] Data are the means of two experiments performed in triplicate.\nWe hypothesized that the cysteine in position 8 of the R31C GnRH might form disulfide bridges with cysteine residues in the receptor that are not in disulfide bridges. There are three such cysteines: cysteine 218, cysteine 279 and cysteine 317. In order to examine this possibility the effects of R31C GnRH pre-incubation on subsequent binding of a radio-labelled GnRH analog was examined. […] After treatment, the cells were extensively washed to remove all non-covalently bound peptide."}, "[2]": {"details": "aqueous solution at pH 7, overnight at 37°C, mass spectrometry-coupled electrospray (Fig. S1)"}, "[3]": {"details": "R31C 10^−10 M to 10^−6 M in combination with WT GnRH at 10^−9 M"}, "[4]": {"details": "5 hours, listed as R31C peptide"}}, "note": "“Also recorded” adds a separate entry of the source. Read-outs that look alike come from different tables or passages of the source."}
{"compound": "CC(C)C[C@H](NC(=O)CNC(=O)[C@H](Cc1ccc(O)cc1)NC(=O)[C@H](CO)NC(=O)[C@H](Cc1c[nH]c2ccccc12)NC(=O)[C@H](Cc1c[nH]cn1)NC(=O)[C@@H]1CCC(=O)N1)C(=O)N[C@@H](CS)C(=O)N1CCC[C@H]1C(=O)NCC(N)=O", "note": "[R31C GnRH]", "values": [{"measurement": "dimerization", "setting": "[1]; 24 h, room temperature, water and culture medium, LC-MS/MS", "value": "No dimerization"}, {"measurement": "formation of R31C dimers", "setting": "[1]; [2]", "value": "absent"}, {"measurement": "formation of smaller fragments", "setting": "[1]; [2]", "value": "negligible"}, {"measurement": "stability over 24-hours", "setting": "[1]; culture medium, room temperature, 24 h, LC-MS/MS", "value": "stable"}, {"measurement": "stability over 24-hours", "setting": "[1]; water, room temperature, 24 h, LC-MS/MS", "value": "stable"}, {"measurement": "maximal stimulation / agonism, SRE-luciferase", "setting": "human GnRH receptor; HEK293T, 5 h, R31C compared with WT", "value": "full agonist; also recorded: able to elicit the same maximal stimulation"}, {"measurement": "EC50", "setting": "human GnRH receptor; HEK293T, 5 h, n = 8 dose-response experiments, Arcsin \"P\" root transformation, spread not defined, p<0.0001, read-out: EC-50, SRE-luciferase (Fig. 3B)", "value": "313 ± 130", "unit": "nM"}, {"measurement": "impact of added R31C GnRH on SRE-luciferase with WT GnRH", "setting": "human GnRH receptor; [3]", "value": "failed to have any impact"}, {"measurement": "SRE-luciferase activity / potency", "setting": "human GnRH receptor; R31C GnRH versus WT", "value": "very low activity"}, {"measurement": "reduction of R31C agonist versus WT, SRE-luciferase", "setting": "human GnRH receptor; R31C versus WT, dose-response curves", "value": "~100", "unit": "fold"}, {"measurement": "lhb transcription versus WT GnRH", "setting": "lhb (LbetaT2 cells); 5 hours", "value": "very low activity"}, {"measurement": "lhb transcription versus WT GnRH", "setting": "lhb (LbetaT2 cells); [4]", "value": "weaker responses"}, {"measurement": "influence of R31C GnRH on stimulation of lhb transcription by WT GnRH", "setting": "lhb (LbetaT2 cells); 10 nM WT + 10 nM R31C, 5 hours", "value": "unable to influence the stimulation of lhb transcription"}, {"measurement": "lhb transcript levels", "setting": "lhb (LbetaT2 cells); 5 hours", "value": "did not significantly increase these levels over baseline"}, {"measurement": "impact of added R31C GnRH on lhb transcription with WT GnRH", "setting": "lhb (LbetaT2 cells); [3]", "value": "failed to have any impact"}, {"measurement": "ERK1/2 phosphorylation versus WT GnRH", "setting": "ERK1/2 (LbetaT2 cells); 10 nM, LbetaT2 cells, four experiments", "value": "very low activity"}, {"measurement": "ERK1/2 phosphorylation versus WT GnRH", "setting": "ERK1/2 (LbetaT2 cells); 10 nM, LbetaT2 cells, four experiments, listed as R31C peptide", "value": "weaker responses"}, {"measurement": "effect of increasing R31C dose on ERK1/2 phosphorylation by WT GnRH", "setting": "ERK1/2 (LbetaT2 cells); R31C from 10 nM to 300 nM with 10 nM WT GnRH, 5 minutes exposure", "value": "did not reduce ERK1/2 phosphorylation"}, {"measurement": "LH secretion versus WT GnRH", "setting": "LH (LbetaT2 cells); 5 hours", "value": "very low activity"}, {"measurement": "LH secretion versus WT GnRH", "setting": "LH (LbetaT2 cells); [4]", "value": "weaker responses"}, {"measurement": "influence of R31C GnRH on stimulation of LH secretion by WT GnRH", "setting": "LH (LbetaT2 cells); 10 nM WT + 10 nM R31C, 5 hours", "value": "unable to influence"}, {"measurement": "LH secretion over baseline", "setting": "LH (LbetaT2 cells); 5 hours", "value": "significantly stimulated LH secretion"}, {"measurement": "impact of added R31C GnRH on LH secretion with WT GnRH", "setting": "LH (LbetaT2 cells); [3]", "value": "failed to have any impact"}, {"measurement": "receptors occupied in pre-incubation", "setting": "GnRH-R; R31C GnRH (10^−5 M in method and Fig. 2B), determined from the competition binding study", "value": 50, "unit": "%"}, {"measurement": "covalent binding to receptor / subsequent binding of radiolabeled GnRH analog after pre-incubation and washing", "setting": "GnRH-R", "value": "does not form covalent disulfide bonds with the receptor"}]}
{"compound": "CC(C)C[C@H](NC(=O)CNC(=O)[C@H](Cc1ccc(O)cc1)NC(=O)[C@H](CO)NC(=O)[C@H](Cc1c[nH]c2ccccc12)NC(=O)[C@H](Cc1c[nH]cn1)NC(=O)[C@@H]1CCC(=O)N1)C(=O)N[C@@H](CCCNC(=N)N)C(=O)N1CCC[C@H]1C(=O)NCC(N)=O", "note": "[WT GnRH, reference compound]", "values": [{"measurement": "formation of smaller fragments", "setting": "[1]; [2]", "value": "absent"}, {"measurement": "EC50", "setting": "human GnRH receptor; HEK293T, 5 h, p<0.0001 WT vs R31C, read-out: EC-50, SRE-luciferase", "value": 4, "unit": "nM"}, {"measurement": "lhb transcript levels", "setting": "lhb (LbetaT2 cells); 5 hours", "value": "significantly increased lhb transcript levels"}, {"measurement": "time of maximal ERK1/2 phosphorylation", "setting": "ERK1/2 (LbetaT2 cells); 10 nM, LbetaT2 cells, 0-30 minutes, four experiments", "value": 5, "unit": "min"}, {"measurement": "LH secretion over baseline", "setting": "LH (LbetaT2 cells); 5 hours", "value": "strongly stimulated LH secretion over baseline"}, {"measurement": "covalent binding to receptor / subsequent binding of radiolabeled GnRH analog after pre-incubation and washing", "setting": "GnRH-R", "value": "can be fully removed from the receptor"}, {"measurement": "receptors occupied in pre-incubation", "setting": "GnRH-R; WT GnRH at 10^−8 M", "value": 50, "unit": "%"}]}
